Like-named read-outs stand apart in the source and are kept apart here.
Assays:
rat skin tryptase = molecular target: T1, rat skin tryptase (Rattus norvegicus, UniProt P27435); test: Inactivation rate of rat skin tryptase; format: biochemical; conditions: pH 7.5, 25° C, read-out: kobs/[I]
T1 construct: from tissue; host or cells: rat skin
Summary of the method: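 Rat skin tryptase incubated with isocoumarin inhibitor in 25 mM phosphate, 0.5 M NaCl, 1 mM EDTA, pH 7.5, 8-9% Me2SO, 25 °C; aliquots withdrawn over time for residual activity on ZArg-SBzl (0.07 mM) with 4,4'-dithiodipyridine (0.33 mM). First-order kobs from ln(vt/vo) versus time.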

[1] = molecular target: recombinant human tissue plasminogen activator (Homo sapiens, UniProt P00750); test: Inactivation rate of recombinant human tissue plasminogen activator; format: biochemical; conditions: pH 7.5, 25° C, read-out: kobs/[I]
Chain of recombinant human tissue plasminogen activator (P00750 36-562): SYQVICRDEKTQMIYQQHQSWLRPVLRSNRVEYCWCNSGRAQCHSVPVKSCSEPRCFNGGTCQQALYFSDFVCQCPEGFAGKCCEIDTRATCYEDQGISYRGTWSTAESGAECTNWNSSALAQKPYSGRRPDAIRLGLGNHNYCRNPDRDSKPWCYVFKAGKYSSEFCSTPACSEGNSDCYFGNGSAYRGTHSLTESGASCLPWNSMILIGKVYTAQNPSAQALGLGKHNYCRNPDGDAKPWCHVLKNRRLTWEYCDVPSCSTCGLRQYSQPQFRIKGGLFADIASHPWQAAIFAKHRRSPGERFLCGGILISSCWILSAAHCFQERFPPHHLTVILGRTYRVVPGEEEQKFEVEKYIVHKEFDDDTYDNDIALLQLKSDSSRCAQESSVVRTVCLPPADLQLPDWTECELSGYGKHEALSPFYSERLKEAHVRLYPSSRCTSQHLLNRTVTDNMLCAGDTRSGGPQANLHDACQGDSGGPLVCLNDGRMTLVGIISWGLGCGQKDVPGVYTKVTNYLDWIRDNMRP
Summary of the method: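 Incubation method: enzyme mixed with inhibitor in Me2SO (8–12% v/v) in 0.1M Hepes, 0.5M NaCl, pH 7.5; aliquots withdrawn over time for residual activity with ZArg-SBzl (0.07 mM) plus 4,4'-dithiodipyridine (0.33 mM). kobs taken from ln(vt/vo) versus time plots.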

human lung tryptase = test: Inactivation rate of human lung tryptase; format: biochemical; conditions: pH 7.5, 25° C
Summary of the method: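 Incubation method in 0.1M Hepes, 0.5M NaCl, pH 7.5, 8% Me2SO, 25° C; inhibitor added to enzyme, aliquots withdrawn over time for residual activity. Substrate ZArg-SBzl (0.07 mM) with 4,4'-dithiodipyridine (0.33 mM). kobs from ln(vt/vo) vs time plots.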

[2] = Activated partial thromboplastin time (APTT), human plasma
[3] = molecular target: sheep lung lymph tryptase; test: Inactivation rate of sheep lung lymph tryptase; format: biochemical; conditions: Table III; pH 7.5, 25° C; [I] 10 to 460 μM
chymotrypsin = chymotrypsin (Bos taurus, UniProt P00766); test: Inactivation of chymotrypsin; format: biochemical, bovine; conditions: pH 7.5, 25° C, read-out: kobs/[I]
bovine thrombin = molecular target: T2, bovine thrombin (Bos taurus, UniProt P00735); test: Inactivation rate of bovine thrombin; format: biochemical; conditions: read-out: kobs/[I]
T2 construct: bovine thrombin
Summary of the method: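 First-order kobs came from ln(vt/vo)-versus-time plots of remaining activity, measured on timed aliquots with thioester or nitroanilide substrates. Enzyme at 0.01-2.3 μM was preincubated with inhibitor at 25° C in pH 7.5 Hepes/0.01M CaCl2 buffer containing 8-12% Me2SO.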

[4] = molecular target: T3, porcine pancreatic kallikrein (Sus scrofa, UniProt P00752); test: Inactivation rate of porcine pancreatic kallikrein; format: biochemical; conditions: Table I, read-out: kobs/[I]
T3 construct: from tissue; host or cells: porcine pancreas (from the name)
T3 sequence (P00752 8-246): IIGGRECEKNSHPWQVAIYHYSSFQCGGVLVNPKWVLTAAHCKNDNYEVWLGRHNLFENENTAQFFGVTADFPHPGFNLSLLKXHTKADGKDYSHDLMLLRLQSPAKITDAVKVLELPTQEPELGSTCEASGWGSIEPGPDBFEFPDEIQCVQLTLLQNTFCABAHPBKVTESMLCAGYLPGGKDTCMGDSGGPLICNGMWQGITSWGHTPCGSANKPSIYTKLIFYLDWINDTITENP

human factor XIa = molecular target: T4, human factor XIa (Homo sapiens, UniProt P03951); test: Inactivation rate of human factor XIa; format: biochemical; conditions: pH 7.5, 25° C, read-out: kobs/[I]
T4 construct: human factor XIa
T4 sequence (P03951 388-625 limits assumed): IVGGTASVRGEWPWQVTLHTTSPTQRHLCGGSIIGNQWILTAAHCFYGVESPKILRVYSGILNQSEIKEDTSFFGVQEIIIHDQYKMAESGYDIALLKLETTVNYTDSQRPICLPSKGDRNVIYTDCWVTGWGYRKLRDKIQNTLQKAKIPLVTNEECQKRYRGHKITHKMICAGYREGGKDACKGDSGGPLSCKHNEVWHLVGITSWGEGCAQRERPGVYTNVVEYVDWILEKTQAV
T4 sequence (P03951 19-387 partner limits assumed): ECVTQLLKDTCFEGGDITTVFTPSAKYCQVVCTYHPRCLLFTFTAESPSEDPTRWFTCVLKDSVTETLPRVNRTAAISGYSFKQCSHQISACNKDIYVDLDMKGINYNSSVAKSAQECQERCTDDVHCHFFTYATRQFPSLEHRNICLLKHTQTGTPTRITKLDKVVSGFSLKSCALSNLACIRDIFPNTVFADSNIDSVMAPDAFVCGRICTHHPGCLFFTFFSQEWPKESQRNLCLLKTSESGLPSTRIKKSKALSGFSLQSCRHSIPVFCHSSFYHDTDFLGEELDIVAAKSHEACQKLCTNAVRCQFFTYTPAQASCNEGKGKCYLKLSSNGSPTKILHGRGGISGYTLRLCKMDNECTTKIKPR
Description: Inactivation rates of serine proteases by substituted isocoumarins were measured by the incubation method. An aliquot of inhibitor (25 or 50 μl) in Me2 SO was added to a buffered enzyme solution (0.01-2.3 μM) to initiate the inactivation. Aliquots (50 μl) were withdrawn at various intervals and the residual enzymatic activity was measured. Me2 SO concentration in the reaction mixture was 8-12% (v/v). 0.1 Hepes, 0.01M CaCl2, pH 7.5 buffer was utilized for trypsin and coagulation enzymes. 0.1M Hepes, 0.5M NaCl, pH 7.5 was utilized for other serine proteases. The inhibitor concentrations are shown in all the tables. Peptide thioesters or peptide nitroanilides with appropriate sequence were used as substrates for various serine proteases. All peptide thioester hydrolysis rates were measured with assay mixtures containing 4,4'-dithiodipyridine (ε324 =19800M^-1 cm^-1; Grasetti & Murray, Arch. Biochem. Biophys. 119, pp 41-49 (1967)). Peptide 4-nitroanilide nitroanilide hydrolysis was measured at 410 nm (ε410 =8800M^-1 cm^-1; Erlanger et al., Arch. Biochem. Biophys. 95, pp 271-278 (1961)). First order inactivation rate constant (kobs) were obtained from plots of ln (vt /vo) vs time, and the correlation coefficients were greater than 0.98.
^a Conditions were as 0.1M Hepes, 0.01M CaCl2, pH 7.5 and 8-12%
Me2 SO and 25° C. Rate constants were measured by incubation
method unless otherwise noted. An aliquot of inhibitor was added to an
enzyme solution and aliquots removed with time and assayed for remaining
enzymatic activity. Firstorder rate constants, kobs were obtained
from the plots of ln(vt /vo) versus time.
^a Inhibition rates were measured in 0.1M Hepes, 0.01M CaCl2, pH
7.5 buffer, 8% Me2 SO and at 25° C.

[5] = molecular target: T5, human leukocyte elastase (HLE) (Homo sapiens, UniProt P08246); test: Inactivation of human leukocyte elastase (HLE); format: biochemical
T5 construct: from tissue; host or cells: human leukocytes (from the name)
T5 sequence (P08246 30-267): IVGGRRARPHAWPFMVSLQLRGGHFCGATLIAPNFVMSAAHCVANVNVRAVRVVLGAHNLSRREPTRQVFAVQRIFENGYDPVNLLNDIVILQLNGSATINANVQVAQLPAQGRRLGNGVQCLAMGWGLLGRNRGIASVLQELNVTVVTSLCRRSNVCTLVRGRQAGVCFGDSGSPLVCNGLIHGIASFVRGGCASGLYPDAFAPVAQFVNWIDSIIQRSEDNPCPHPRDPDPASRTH

[6] = molecular target: T6, porcine pancreatic elastase (PPE) (Sus scrofa, UniProt P00772); test: Inactivation of porcine pancreatic elastase (PPE); format: biochemical; conditions: pH 7.5, 25° C, read-out: kobs/[I]
T6 construct: from tissue; host or cells: porcine pancreas (from the name)
T6 sequence (P00772 27-266): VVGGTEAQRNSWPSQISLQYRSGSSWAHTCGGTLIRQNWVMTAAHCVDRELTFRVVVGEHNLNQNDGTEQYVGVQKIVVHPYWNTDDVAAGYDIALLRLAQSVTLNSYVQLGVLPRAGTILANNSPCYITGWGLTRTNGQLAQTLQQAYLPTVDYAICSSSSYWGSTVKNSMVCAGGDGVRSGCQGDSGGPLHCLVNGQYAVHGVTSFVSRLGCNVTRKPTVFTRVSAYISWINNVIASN

human plasmin = molecular target: T7, human plasmin (Homo sapiens, UniProt P00747); test: Inactivation rate of human plasmin; format: biochemical; conditions: read-out: kobs/[I]
T7 construct: human plasmin; from tissue; host or cells: human plasma
T7 sequence (P00747 581-810 limits assumed): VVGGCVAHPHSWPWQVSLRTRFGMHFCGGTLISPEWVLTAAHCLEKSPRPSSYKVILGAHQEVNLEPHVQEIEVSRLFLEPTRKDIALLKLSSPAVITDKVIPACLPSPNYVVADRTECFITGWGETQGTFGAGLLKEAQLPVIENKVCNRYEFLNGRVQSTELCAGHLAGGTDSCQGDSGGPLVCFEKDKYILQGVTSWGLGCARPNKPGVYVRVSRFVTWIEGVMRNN
T7 sequence (P00747 97-580 partner limits assumed): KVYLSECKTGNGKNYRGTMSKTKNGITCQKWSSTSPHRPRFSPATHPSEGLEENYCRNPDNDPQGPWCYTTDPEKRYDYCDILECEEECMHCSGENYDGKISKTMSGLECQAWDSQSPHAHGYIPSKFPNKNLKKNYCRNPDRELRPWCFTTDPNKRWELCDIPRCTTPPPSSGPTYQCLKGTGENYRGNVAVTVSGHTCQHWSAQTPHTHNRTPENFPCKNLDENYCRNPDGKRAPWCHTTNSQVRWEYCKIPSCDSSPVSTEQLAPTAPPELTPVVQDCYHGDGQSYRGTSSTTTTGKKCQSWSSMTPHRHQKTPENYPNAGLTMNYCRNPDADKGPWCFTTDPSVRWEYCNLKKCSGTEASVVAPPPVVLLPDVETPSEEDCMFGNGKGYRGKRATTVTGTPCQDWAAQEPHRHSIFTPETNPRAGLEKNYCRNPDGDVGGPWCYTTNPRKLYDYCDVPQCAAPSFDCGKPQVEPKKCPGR

[7] = pH 7.5, Table III, 25 mM phosphate, [I] 0.4 to 50 μM
[8] = pH 7.5, Table VI, [I] 7 to 44 μM
[9] = Table I, pH 7.5, 25° C, [I] 0.3 to 400 μM
[10] = pH 7.5, 25° C, [I] 0.4 to 300 μM
[11] = Table IV, pH 7.5, 25° C, [I] 0.001 to 0.18 mM, read-out: kobs/[I]
[12] = Table VI, pH 7.5, 25° C, [I] 4 to 330 μM
[13] = pH 7.5, Table IX, [I] 0.42-0.51 μM
[14] = pH 7.5, Table IX, [I] 3.5-5.0 μM
[15] = pH 7.5, same concentration of enzyme and inhibitor
[16] = pH 7.5, Table I, same concentration of enzyme and inhibitor

T1 sequence (P27435 29-273): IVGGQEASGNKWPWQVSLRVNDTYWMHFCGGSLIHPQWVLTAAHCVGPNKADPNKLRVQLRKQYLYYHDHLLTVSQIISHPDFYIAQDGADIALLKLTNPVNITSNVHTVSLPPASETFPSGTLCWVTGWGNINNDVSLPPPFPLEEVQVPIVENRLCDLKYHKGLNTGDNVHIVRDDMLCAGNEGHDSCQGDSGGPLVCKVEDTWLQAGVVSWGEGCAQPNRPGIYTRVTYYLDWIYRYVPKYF

| SMILES | kinact/KI (rat skin tryptase; [7]) [M⁻¹ s⁻¹] | kinact/KI [1, 8] [M⁻¹ s⁻¹] | kobs/[I] (human lung tryptase; Table III, [I] 0.4 to 50 μM) | kobs/[I] [3] | kinact/KI (chymotrypsin; Table IV, [I] 0.004 to 0.33 mM) [M⁻¹ s⁻¹] | kinact/KI (bovine thrombin; [9]) [M⁻¹ s⁻¹] | kinact/KI [4, 10] [M⁻¹ s⁻¹] | kinact/KI (human factor XIa; Table I, [I] 3 to 330 μM) [M⁻¹ s⁻¹] | kinact/KI [5, 11] [M⁻¹ s⁻¹] | kinact/KI ([6]; Table IV, [I] 0.01 to 0.51 mM) [M⁻¹ s⁻¹] | kinact/KI (human plasmin; [12]) [M⁻¹ s⁻¹] | kinact/KI [4, 15] [M⁻¹ s⁻¹] | other results |
| --- | --- | --- | --- | --- | --- | --- | --- | --- | --- | --- | --- | --- | --- |
| O=c1oc(Cl)c(Cl)c2ccccc12 [3,4-dichloroisocoumarin, reference compound] | 610 | 73 | 185 M⁻¹ s⁻¹ | 39 M⁻¹ s⁻¹ | – | – | – | – | – | – | – | – | APTT ([2]; [I] 33 μM): 26.6 s; APTT ([2]; [I] 45 μM): 26.0 s |
| N=C(N)SCCOc1oc(=O)c2ccccc2c1Cl [3-(2-isothiureidoethoxy)-4-chloroisocoumarin] | – | – | – | 290 M⁻¹ s⁻¹ | 1300 | 4700 | 12000 | 44000 | 220 | 270 | – | – | – |
| NCCCOc1oc(=O)c2ccccc2c1Cl [3-(3-aminopropoxy)-4-chloroisocoumarin] | 8370 | 94 | 2,000 M^-1 s^-1 | 18 M⁻¹ s⁻¹ | 580 | 350 | 860 | 380 | 860 | 70 | 770 | – | – |
| N=C(N)SCCCOc1oc(=O)c2ccccc2c1Cl [3-(3-isothiureidopropoxy)-4-chloroisocoumarin] | 53000 | 4690 | 64,000 M^-1 s^-1 | 230 M⁻¹ s⁻¹ | 1700 | 1430 | 19000 | 47000 | 2000 | 70 | – | – | APTT ([2]; [I] 31 μM): 25.8 s |
| N=C(N)SCCCOc1oc(=O)c2cc(N)ccc2c1Cl [7-amino-4-chloro-3-(3-isothiureidopropoxy)isocoumarin] | 63000 | 5690 | 28,000 M^-1 s^-1 | 710 M⁻¹ s⁻¹ | 1600 | 630 | – | 22000 | 130 | 1 | 4340 | > 110000 | kinact/KI (rat skin tryptase; [13]): 39000 M⁻¹ s⁻¹; kinact/KI [1, 14]: 13000 M⁻¹ s⁻¹; kobs/[I] (human lung tryptase; Table IX, [I] 0.42-0.47 μM): 19,000 M^-1 s^-1; APTT ([2]; [I] 2.9 μM): 100.8 s; APTT ([2]; [I] 29 μM): > 120 s |
| CCOc1oc(=O)c2cc(NC(=N)N)ccc2c1Cl [7-guanidino-3-ethoxy-4-chloroisocoumarin, 7-guanidino-4-chloro-3-ethoxyisocoumarin] | 82000 | 7720 | 61,000 M^-1 s^-1 | 2,200 M^-1 s^-1 | 37000 | – | – | 60000 | 81000 | 2300 | 12300 | > 200000 | kinact/KI (bovine thrombin; [16]): > 55000 M⁻¹ s⁻¹; APTT ([2]; [I] 4.3 μM): 74.8 s; APTT ([2]; [I] 21 μM): > 120 s; APTT ([2]; [I] 53 μM): > 120 s; APTT ([2]; [I] 107 μM): > 120 s |
| COc1cc2ccc(NC(=N)N)cc2c(=O)o1 [7-guanidino-3-methoxyisocoumarin] | – | – | – | 53 M⁻¹ s⁻¹ | 270 | 4900 | 1900 | 1400 | 320 | 55 | 320 | – | – |
| N=C(N)Nc1ccc2c(Cl)c(OCCc3ccccc3)oc(=O)c2c1 [7-guanidino-4-chloro-3-(2-phenylethoxy)isocoumarin] | 86000 | 6780 | 56,000 M^-1 s^-1 | 3,900 M^-1 s^-1 | 38000 | – | – | 20000 | 73 | 5.7 | 4140 | 200000 | kinact/KI (bovine thrombin; [16]): > 30000 M⁻¹ s⁻¹; APTT ([2]; [I] 27 μM): 57.3 s |
| COc1oc(=O)c2cc(NC(=N)N)ccc2c1Cl [7-guanidino-4-chloro-3-methoxyisocoumarin] | 52000 | 4420 | 20,000 M^-1 s^-1 | 620 M⁻¹ s⁻¹ | 7200 | – | – | 36200 | 6400 | 860 | 3500 | – | kinact/KI (bovine thrombin; pH 7.5, Table I, progress curve method): 290000 M⁻¹ s⁻¹; kinact/KI ([4]; pH 7.5, progress curve method): 45000 M⁻¹ s⁻¹; APTT ([2]; [I] 21 μM): 83.8 s |
| N=C(N)SCCOc1oc(=O)c2cc(NC(=O)Nc3ccccc3)ccc2c1Cl [PhNHCONH-CiTEtOIC, 7-(phenylcarbamoylamino)-4-chloro-3-(2-isothiureidoethoxy)isocoumarin] | – | – | – | – | – | – | – | – | – | – | – | – | kinact/KI (rat skin tryptase; [13]): 170000 M⁻¹ s⁻¹; kinact/KI (chymotrypsin; Table X, [I] 0.9-43 μM): 16000 M⁻¹ s⁻¹; kinact/KI [1, 14]: 16000 M⁻¹ s⁻¹; kobs/[I] (human lung tryptase; Table IX, [I] 0.42-0.47 μM): 170,000 M^-1 s^-1; kinact/KI (bovine thrombin; Table VIII, pH 7.5, 25° C, [I] 1.2-54 μM): 25000 M⁻¹ s⁻¹; kinact/KI (human factor XIa; Table VIII, [I] 0.7-0.8 μM): 104000 M⁻¹ s⁻¹; kinact/KI ([5]; pH 7.5, Table X, biphasic inhibition, read-out: kobs/[I] (biphasic, first value)): 46000 M⁻¹ s⁻¹; kinact/KI ([5]; pH 7.5, Table X, biphasic inhibition, read-out: kobs/[I] (biphasic, second value)): 5730 M⁻¹ s⁻¹; kinact/KI (human plasmin; Table IX, 0.01M CaCl2, pH 7.5, 25° C, [I] 8.3-41 μM): 32000 M⁻¹ s⁻¹; kinact/KI ([6]; Table X, [I] 33-46 μM): 840 M⁻¹ s⁻¹ |

From patent US5324648A, “Substituted isocoumarins as serine protease inhibitors and anti-inflammatory agents” (Georgia Tech Research Corporation, priority 1992, dated 1994)
